# According to publication PMC5641330, “Prediction of a Therapeutic Dose for Buagafuran, a Potent Anxiolytic Agent by Physiologically Based Pharmacokinetic/Pharmacodynamic Modeling Starting from Pharmacokinetics in Rats and Human” (Frontiers in Pharmacology, 2017):
# Columns and labels:
# [1] = PBPK simulation in human (GastroPlus); details: optimized by comparing fitting with observed PK data
# Excerpt: (§1) GastroPlus^TM software (version 8.5) was used to perform all simulations, (Simulations Plus, Inc., Lancaster, CA, United States). The absorption of oral formulations from the GI tract was modeled by the advanced compartmental absorption and transit (ACAT^TM) model implemented in GastroPlus ([Agoram et al., 2001]; [Kuentz et al., 2006]; [Huang et al., 2009]; [Zhang et al., 2011]). Input parameters in the ACAT model include three groups: formulation properties, physicochemical properties and pharmacokinetic parameters. […] The immediate release (IR) suspension for rat and IR capsule for human were selected for simulation of buagafuran in GastroPlus^TM. The ACAT model consists of nine compartments that mimic the GI tract. Each GI tract has an associated ASF. ASF is the multiplier used to scale the permeability to account for different surface-to-volume ratios, pH effects, transporter differences, and other factors that affect absorption between different compartments ([Zhang et al., 2011]). Four coefficients C1–C4 are used to calculate ASF. And there are eight basic ASF models in version 8.5. […]
# (§2) The pharmacokinetic parameters of unbound fraction in plasma (FUp) were experimentally measured values. […]
# [2] = system: P-gp; design: method as in Li, 2010; details: ref Li, 2010; cited from earlier work
# [3] = Clearance prediction from incubation with rat liver microsomes; format: in vitro ADME
# Protocol: Drug disappearance t1/2 value measurements in rat and human microsomes were used to determine the in vitro apparent intrinsic clearance value (CLintapp) of buagafuran acquired using Then CLintapp was converted to in vivo intrinsic clearance (CLint).
# Rat or human liver microsomal incubation (0.5 mg/mL) was carried out at 37°C in a mixture of 0.5 mL in 0.05 M Tris–HCl buffer (pH 7.4). Buagafuran (2 μM) was added to the incubation system. The addition of NADPH (1 mM) initiated the reaction, then the reaction was incubated for 0, 10, 20, 30, 45, and 60 min. The equal volume of acetonitrile containing the IS (10 ng/mL) was added to stop the reaction. The mixtures were centrifuged at 16000 g for 5 min and the supernatants were determined using LC-MS/MS method.
# The natural log (In) of buagafuran concentration versus time was plotted and the slope of the best fit line of was determined by the data (k). This was converted into in vitro t1/2 where t1/2 = In 2/k. CLintapp was calculated by the following equation: […]
# Where M is the microsomal protein concentration in the incubation. CLint by liver was calculated from equation 2:
# (2) CLint=CLint(app)×mgmicrosome/gliver×liverweight(g)/bodyweight(kg)
# Where a value of 45 mg of protein per gram of liver tissue was used for both rat and human, and a liver weight of 40 and 21 g per kg were applied to rat and human, respectively ([Hosea et al., 2009]). […]
# [4] = design: method as in Zhang, 1997; Li et al., 2001; Li, 2010; details: rat liver microsomes, ref Zhang, 1997, Li et al., 2001, 2010; cited from earlier work
# [5] = PBPK simulation in rat (GastroPlus)
# Excerpt: as §1, §2
smiles,measurement,setting,value
CCCCC1=CCC[C@@]2(C)CC[C@@H]3C[C@]12OC3(C)C [buagafuran],input (refined) CLhep,[1],11.7 mL/min/kg
same,substrate of the transporter P-gp,[2],substrate of the transporter P-gp
same,CLhep predicted,"[3]; from rat liver microsomes, well-stirred model",28.0 mL/min/kg
same,microsomal CLint at 2 μM,"[3]; pH 7.4, rat liver microsomes 0.5 mg/mL, 2 μM, read-out: in vitro CLintapp",33 µL/min/mg
same,extraction ratio,[4],about 50%
same,Kp,"[5]; brain, oral, optimized by parameter sensitivity analysis, also used for human simulation",6.7
same,input (refined) CLhep,[5]; optimized by comparing fitting with observed PK data,36.8 mL/min/kg
